Assay results published in patent US12570651B2, “Quinazoline-2,4-dione derivatives as PARP inhibitors” (Suzhou Four Health Pharmaceuticals Co., Ltd., priority 2019, dated 2026).
Blank lines part the entries; values can stand above or below the compound they belong to.

What was measured:
PARP-1 = biological target: T1, PARP-1 (Homo sapiens, UniProt P09874); assay: PARP/Apoptosis Universal Colorimetric Assay Kit (ELISA), PARP inhibitory activity; format: biochemical; conditions: for IC50: Elise test methods April 2020, 0.5 U/well PARP-HSA Enzyme, read-out: IC50-values for different PARP-inhibitors, as calculated by ELISA; for IC50, comparison in words: ELISA
T1 construct: purchased BioTechne—R&D Systems 4677-096-K
Description: The inhibitors (13F, 14F, 13I-FL, 13F-FL, 14F-FL, 13I and 14I) were kept at −20° C., dissolved in DMSO at 20 mg/mL.
The PARP/Apoptosis Universal Colorimetric Assay Kit 4677-096-K was purchased from BioTechne—R&D Systems. This ELISA kit detects biotinylated poly (ADP-ribose) deposited by PARP-1 onto immobilized histones in a 96-well format. The addition of Strep-HRP (biotin-binding protein) and a colorimetric HRP substrate yields relative absorbance that correlates with PARP-1 activity. The kit is used for in vitro screening of candidate PARP-1 inhibitors and determination of IC50 values.
The protocol recommended by the provider was followed. A 1/10 serial dilution of the inhibitors (ranging from 500 μM to 0.5 nM, 7 data points in triplicate) was added to the designated wells. Wells incubated with 0.5 U/well of PARP-HSA Enzyme without inhibitor were used as the 100% activity reference point. Data was expressed as % of Maximal Activity and plotted in function of the log of concentration (M)) using Graph Pad Prism 8. IC50 values were determined using a dose-response-inhibition equation.

FaDu cells [1] = assay: In vitro association kinetics, confocal microscopy; format: cell-based; conditions: 0.1 μM, 37° C.
Description: 40 000 FaDu cells were plated in 24-well plates (Cell imaging plates with glass bottom, Eppendorf), and incubated for 2 days at 37° C. After removal of the medium, 0.5 mL of 14F-FL at a final concentration of 0.1 μM was added and incubated for 2 min, 10 min, 20 min, 30 min, 45 min or 60 min at 37° C. The cells were then washed thrice with 1 ml cold PBS, fixed with 1 mL 4% paraformaldehyde (VWR) for 7-10 minutes and washed again with 1 mL PBS. Finally, 0.5 mL of 1 μg/mL DAPI-staining solution (DAPI ready-made solution, Sigma) was added for at least 10 min to stain the cell nuclei.
(§1) High resolution bright field and fluorescent images of the cells were acquired on a confocal microscope (LSM800, Zeiss) with excitation and emission wavelengths of 405/455 nm for DAPI and 488/525 for BodipyFL (standard conditions). Images were taken with a Plan Apochromat 63×/1.4 oil objective. Images were analyzed with the Software ZenLITE (Zeiss).

OE33 cells [2] = assay: Cell binding by flow cytometry; format: cell-based
Description: (§2) 250 000 cells (FaDu, Cal27 or OE33) in suspension were incubated with 0.5 mL media, 0.5 mL 10 μM unlabeled 14F or 0.5 mL 10 μM Olaparib-analogue. After 30 min incubation at 37° C., the cells were washed once with 0.5 mL media and subsequently incubated with 0.5 mL 0.1 μM 14F-FL for 10 min at 37° C. The cells were then washed thrice with media (including 1×10 min incubation) and resuspended in FACS buffer (PBS+0.5% FBS+EDTA+N3). Finally, cells were analyzed on a flow cytometer (BD Celesta) in the GFP channel (ex 488 nm, em filter 510 nm). Data was analyzed via FlowJo software.

FaDu cells [3] = assay: Cell binding by flow cytometry; format: cell-based
Description: as §2

Cal27 cells [4] = assay: Cell binding by flow cytometry; format: cell-based
Description: as §2

FaDu cells [5] = assay: In vitro dissociation kinetics, confocal microscopy; format: cell-based
Description: 40 000 FaDu cells were plated in 24-well plates (Cell imaging plates with glass bottom, Eppendrof), and incubated for 2 days at 37° C. After removal of the medium, 0.5 mL of 14F-FL at a final concentration of 0.1 μM was added and incubated for 15 min at 37° C. The cells were then washed thrice with 1 ml cold PBS, and further incubated for 0 min, 30 min, 1 h, 2 h, 4 h or 24 h in medium at 37° C. After washing once with 1 mL cold PBS, the cells were fixed with 4% paraformaldehyde (VWR) and staining with DAPI as described above.
as §1

OE33 cells [6] = assay: In vitro cell binding study, confocal microscopy; format: cell-based
Description: (§3) 40 000 cells (FaDu, OE33, or Cal27) were plated in 24-well plates (Cell imaging plates with glass bottom, Eppendorf), and incubated for 2 days at 37° C. After removal of the medium, either 0.5 mL of media (Cond 1), 0.5 mL of 10 μM unlabeled PARPi (14F) (Cond 2) or 0.5 mL of 10 μM Olaparib (Cond 3) was added to the cells. After 30 minutes of incubation at 37° C., cells were washed with 1 mL of medium. Subsequently, 0.5 mL of 14F-FL at a final concentration of 0.1 μM was added and incubated for 15 min at 37° C. The cells were then washed thrice with 1 ml cold PBS, fixed with 1 mL 4% paraformaldehyde (VWR) for 7-10 minutes and washed again with 1 mL PBS. Finally, 0.5 mL of 1 μg/mL DAPI-staining solution (DAPI ready-made solution, Sigma) was added for at least 10 min to stain the cell nuclei.
as §1

FaDu cells [7] = assay: In vitro cell binding study, confocal microscopy; format: cell-based
Description: as §3, §1

Cal27 cells [8] = assay: In vitro cell binding study, confocal microscopy; format: cell-based
Description: as §3, §1

[9] = 0.1 μM 14F-FL, 10 min at 37° C.
[10] = 0.1 μM 15 min, washed, medium at 37° C.
[11] = 0.1 μM 14F-FL, 15 min at 37° C.
[12] = 10 μM pretreatment 30 min, then 0.1 μM 14F-FL

T1 sequence (P09874 whole entry): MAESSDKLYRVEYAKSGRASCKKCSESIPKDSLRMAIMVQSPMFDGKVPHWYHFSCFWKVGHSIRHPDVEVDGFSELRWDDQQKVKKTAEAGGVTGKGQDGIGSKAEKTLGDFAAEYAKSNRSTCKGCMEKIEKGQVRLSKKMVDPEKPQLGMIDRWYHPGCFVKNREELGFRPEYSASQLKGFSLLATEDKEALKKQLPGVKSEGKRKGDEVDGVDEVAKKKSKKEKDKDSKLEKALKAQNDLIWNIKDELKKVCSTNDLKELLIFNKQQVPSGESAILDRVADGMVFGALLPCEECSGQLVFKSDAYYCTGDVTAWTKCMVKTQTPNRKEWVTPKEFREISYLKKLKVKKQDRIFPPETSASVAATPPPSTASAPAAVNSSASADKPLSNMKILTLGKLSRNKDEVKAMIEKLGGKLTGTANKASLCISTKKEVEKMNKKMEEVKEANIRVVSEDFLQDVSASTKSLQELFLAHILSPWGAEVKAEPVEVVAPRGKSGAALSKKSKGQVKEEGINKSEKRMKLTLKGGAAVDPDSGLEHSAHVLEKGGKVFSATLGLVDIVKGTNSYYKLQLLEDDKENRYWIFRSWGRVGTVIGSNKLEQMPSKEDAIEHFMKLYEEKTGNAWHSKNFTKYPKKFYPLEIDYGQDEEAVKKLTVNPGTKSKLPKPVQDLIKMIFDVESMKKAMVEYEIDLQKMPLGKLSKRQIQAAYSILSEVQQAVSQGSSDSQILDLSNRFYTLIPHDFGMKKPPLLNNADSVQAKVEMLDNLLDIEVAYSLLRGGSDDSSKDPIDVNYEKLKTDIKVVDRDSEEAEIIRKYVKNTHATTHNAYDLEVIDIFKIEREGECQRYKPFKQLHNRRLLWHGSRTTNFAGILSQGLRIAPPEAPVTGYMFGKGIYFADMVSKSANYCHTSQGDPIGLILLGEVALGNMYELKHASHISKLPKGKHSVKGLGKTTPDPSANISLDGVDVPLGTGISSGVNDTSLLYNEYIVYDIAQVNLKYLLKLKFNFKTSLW

Compound: O=C(c1cc(Cn2c(=O)[nH]c(=O)c3ccccc32)ncc1I)N1CCN(C(=O)C2CCCC2)CC1 [Compound 14I, 1-((4-(4-(cyclopentanecarbonyl)piperazine-1-carbonyl)-5-iodopyridin-2-yl)methyl)quinazoline-2,4(1H,3H)-dione]
IC50 (PARP-1): > 500 nM

Compound: CC1=CC(C)=[N+]2C1=Cc1ccc(CCC(=O)N3CCN(C(=O)c4cc(Cn5c(=O)[nH]c(=O)c6ccccc65)ncc4F)CC3)n1[B-]2(F)F [Compound 14F-FL, 1-((4-(4-(3-(5,5-difluoro-7,9-dimethyl-5H-5I4,6I4-dipyrrolo[1,2-c:2′,1′-f][1,3,2]diazaborinin-3-yl)propanoyl)piperazine-1-carbonyl)-5-fluoropyridin-2-yl)methyl)quinazoline-2,4(1H,3H)-dione]
IC50, comparison in words (PARP-1): Best IC50-values
IC50 (PARP-1): < 50 nM
incubation time to maximal binding (FaDu cells [1]): ≤ 10 min
cell binding, flow cytometry (OE33 cells [2]; [9]): significant binding
cell binding, flow cytometry (FaDu cells [3]; [9]): significant binding
cell binding, flow cytometry (Cal27 cells [4]; [9]): significant binding
retention on target after binding (FaDu cells [5]; [10]): remains bound to its target for a few hours
time from which the signal in the nucleus gradually decreases (FaDu cells [5]; [10]): 2 to 4 h
signal in the nuclei after 24 h (FaDu cells [5]; 24 h in medium at 37° C. after washing): some signal can still be observed
fluorescent signal in the nuclei (OE33 cells [6]; [11]): intense green fluorescent signal
fluorescent signal in the nuclei (FaDu cells [7]; [11]): intense green fluorescent signal
fluorescent signal in the nuclei (Cal27 cells [8]; [11]): intense green fluorescent signal

Compound: O=C(c1cc(Cn2c(=O)[nH]c(=O)c3cccnc32)ccc1F)N1CCN(C(=O)C2CCCC2)CC1 [Compound 13F, 1-(3-(4-(cyclopentanecarbonyl)piperazine-1-carbonyl)-4-fluorobenzyl)pyrido[2,3-d]pyrimidine-2,4(1H,3H)-dione]
IC50 (PARP-1): 50 to 500 nM

Compound: O=C(c1cc(Cn2c(=O)[nH]c(=O)c3ccccc32)ncc1F)N1CCN(C(=O)C2CCCC2)CC1 [Compound 14F, 1-((4-(4-(cyclopentanecarbonyl)piperazine-1-carbonyl)-5-fluoropyridin-2-yl)methyl)quinazoline-2,4(1H,3H)-dione]
IC50, comparison in words (PARP-1): Best IC50-values
IC50 (PARP-1): < 50 nM
14F-FL binding after pretreatment with excess unlabeled compound, flow cytometry (OE33 cells [2]; [12]): decreased the binding
14F-FL binding after pretreatment with excess unlabeled compound, flow cytometry (FaDu cells [3]; [12]): decreased the binding
14F-FL binding after pretreatment with excess unlabeled compound, flow cytometry (Cal27 cells [4]; [12]): decreased the binding
14F-FL signal after pretreatment with excess of unlabeled analogue (OE33 cells [6]; [12]): no green fluorescent signal
14F-FL signal after pretreatment with excess of unlabeled analogue (FaDu cells [7]; [12]): no green fluorescent signal
14F-FL signal after pretreatment with excess of unlabeled analogue (Cal27 cells [8]; [12]): no green fluorescent signal

Further lines, results first:

IC50 (PARP-1): > 500 nM
Compound: O=C(c1cc(Cn2c(=O)[nH]c(=O)c3cccnc32)ccc1I)N1CCN(C(=O)C2CCCC2)CC1 [Compound 13I, 1-(3-(4-(cyclopentanecarbonyl)piperazine-1-carbonyl)-4-iodobenzyl) pyrido [2,3-d]pyrimidine-2,4(1H,3H)-dione]

IC50 (PARP-1): 50 to 500 nM
Compound: CC1=CC(C)=[N+]2C1Cc1ccc(CCC(=O)N3CCN(C(=O)c4cc(Cn5c(=O)[nH]c(=O)c6cccnc65)ccc4F)CC3)n1[B-]2(F)F (stereo not shown) [Compound 13F-FL, 1-(3-(4-(3-(5,5-difluoro-7,9-dimethyl-5H-5I4,6I4-dipyrrolo[1,2-c:2′,1′-f][1,3,2]diazaborinin-3-yl)propanoyl)piperazine-1-carbonyl)-4-fluorobenzyl)pyrido[2,3-d]pyrimidine-2,4(1H,3H)-dione]

IC50 (PARP-1): > 500 nM
Compound: CC1=CC(C)=[N+]2C1Cc1ccc(CCC(=O)N3CCN(C(=O)c4cc(Cn5c(=O)[nH]c(=O)c6cccnc65)ccc4I)CC3)n1[B-]2(F)F (stereo not shown) [Compound 13I-FL, 1-(3-(4-(3-(5,5-difluoro-7,9-dimethyl-5H-5I4,6I4-dipyrrolo[1,2-c:2′,1′-f][1,3,2]diazaborinin-3-yl)propanoyl)piperazine-1-carbonyl)-4-iodobenzyl)pyrido[2,3-d]pyrimidine-2,4(1H,3H)-dione]
